In patent US6596694B2, “Caloporoside derivatives, methods of their preparation and use” (Aventis Pharma Deutschland GmbH, priority 2001, dated 2003):

What follows are molecules tested against cyclin D1/CDK4 (Homo sapiens, UniProt P11802) (assay: Bioassay for CDK-4 inhibitors (phosphorylation of biotinylated peptide substrate, 33P-γ-ATP, flash plates)). Conditions: 2 μM ATP, 2 hours at 37° C., 10 concentrations; read-out: IC50 (concentration which deactivates 50% of CDK-4).
Type: biochemical
Experimental: In order to detect the inhibitors of cyclin-dependent kinases (CDKs), use is made of a test in which the phosphorylation rate by the cyclin-dependent kinases of a specific peptide substrate is measured. The cyclin-dependent kinases are activated when the kinase binds to its respective cyclin. A [γ-P]-phosphate is transferred from [γ-P]-ATP to the peptide substrate by the activated CDK. The test is carried out in 96-well microtiter plates. The radioactivity of the [γ-P]-phosphate on the substrate is measured.
IC50 values for the caloporoside derivatives are shown in Table 1; this is the concentration which deactivates 50% of CDK-4.
For the determination of the IC50 value, stock solutions of the caloporoside derivatives according to the invention were prepared in a concentration of 10 mM. […] flash plates were coated with 50 μl (50 μg/well) of biotinylated peptide substrate at room temperature, incubated for 2 hours, and subsequently washed 3× with PBS buffer. For the reaction, 30 μl of a buffer-diluted solution of the caloporoside derivatives and 20 μl of a pre-mixed ATP/cyclin D1/CDK4 solution (final concentration: 1 μCl of 33P-γ-ATP, 2 μM of ATP and 1 μg of enzyme mixture) were pipetted onto the plates. After a reaction time of 2 hours at 37° C., the plates were washed 3× with 80 μl of 3% phosphoric acid. Radioactivity was subsequently measured for 30 seconds in a MicroBeta counter. The percentage inhibition was determined with the aid of mathematical equations. For the determination of IC50 values, 10 different concentrations of the compounds according to the invention in a freshly diluted DMSO solution were tested.

Sequence of cyclin D1/CDK4 (P11802 whole entry, species assumed): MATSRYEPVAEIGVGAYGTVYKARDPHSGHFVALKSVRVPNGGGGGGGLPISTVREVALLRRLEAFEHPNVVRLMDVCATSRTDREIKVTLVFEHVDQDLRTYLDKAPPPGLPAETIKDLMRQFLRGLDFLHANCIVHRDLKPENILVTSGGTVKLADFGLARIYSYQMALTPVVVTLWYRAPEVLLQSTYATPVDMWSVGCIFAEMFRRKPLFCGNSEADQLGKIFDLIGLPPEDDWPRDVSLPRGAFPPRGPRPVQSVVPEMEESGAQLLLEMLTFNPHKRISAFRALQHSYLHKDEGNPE
Sequence of cyclin D1/CDK4 (P24385 whole entry partner, species assumed): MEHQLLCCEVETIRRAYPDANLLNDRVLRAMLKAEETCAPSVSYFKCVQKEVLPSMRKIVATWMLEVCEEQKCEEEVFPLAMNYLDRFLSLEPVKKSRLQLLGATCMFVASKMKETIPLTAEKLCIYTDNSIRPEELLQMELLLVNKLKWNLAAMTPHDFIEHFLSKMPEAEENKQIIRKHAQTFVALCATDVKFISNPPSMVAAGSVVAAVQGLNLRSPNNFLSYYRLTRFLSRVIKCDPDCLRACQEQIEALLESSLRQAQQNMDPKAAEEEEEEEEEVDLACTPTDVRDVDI

In order of falling IC50:
1. CC(=O)Oc1cccc(CCCCCCCCCCCCCCCC(C)OC(=O)C(O)C(O)C(O)C(COC(=O)CC(=O)O)OC2OC(CO)C(O)C(O)C2OC(C)=O)c1C(=O)O (centres unmarked) [Caloporoside C]  3100 nM
2. CC(=O)OC1C(OC(COC(=O)CC(=O)O)C(O)C(O)C(O)C(=O)OC(C)CCCCCCCCCCCCCCCc2cccc(O)c2C(=O)O)OC(CO)C(O)C1O (centres unmarked) [Caloporoside D]  1800 nM
3. CC(=O)OC1C(O)C(CO)OC(OC(COC(=O)CC(=O)O)C(O)C(O)C(O)C(=O)OC(C)CCCCCCCCCCCCCCCc2cccc(O)c2C(=O)O)C1O (centres unmarked) [Caloporoside E]  1800 nM
4. CC(=O)Oc1cccc(CCCCCCCCCCCCCCCC(C)OC(=O)C(O)C(O)C(O)C(CO)OC2OC(CO)C(O)C(O)C2O)c1C(=O)O (centres unmarked) [Caloporoside B]  1500 nM
5. CC(=O)OC1C(OC(CO)C(O)C(O)C(O)C(=O)OC(C)CCCCCCCCCCCCCCCc2cccc(O)c2C(=O)O)OC(CO)C(O)C1O (centres unmarked) [Caloporoside F]  1500 nM
